Values quoted from earlier work as cited in patent publication US20070197568A1 (priority 2005, published 2007).

Details: animals, at doses that inhibit tumor growth

O=C(CCCCCCC(=O)Nc1ccccc1)NO [SAHA, N-Hydroxy-N′-phenyl octanediamide]
toxicity to the animal: no toxicity
